Experimental data taken from patent US20030129262A1, “Methionine restriction for cancer therapy” (priority 2001, published 2003).
Where a name gives a salt, the structure may show the parent alone. Starred links: 1 amine or outer side, 2 acyl side, 3 side chain; linkers in the order of their positions; H or OH if unused. Positions of bridges follow the written chain, without caps; N, C: chain ends. Non-standard residues stand in square brackets, D forms with d. Residues, ends and D or L forms follow the SMILES beside them. Chains are numbered I, II in the order given. Actinocin(9to1) = Cc1c2oc3c(C)ccc(C(=O)[*:1])c3nc-2c(C(=O)[*:2])c(N)c1=O; NMeV = CN[C@H](C(=O)O)C(C)C; Sar = CNCC(=O)O

How the values were obtained:
[1] = test system: GBM at recurrence; settings: single agent, cited from earlier work
[2] = test system: Hela cells; test: Western blot of caspases, BID, Bcl-2, Hela
[3] = test system: PC-3 cells; test: Western blot of caspases, BID, Bcl-2, PC-3; assay type: cell-based, Human
[4] = test system: Yoshida sarcoma; settings: coadministered with methionine depleted diet, 1.0 mg/kg/day on days 2, 4, 6; cited from earlier work
[5] = test system: Hodgkin's Disease and testicular tumors; settings: in vivo; cited from earlier work
[6] = test system: multiple myeloma; settings: oral administration; cited from earlier work
[7] = cited from earlier work
[8] = test system: human breast carcinoma (MX-t) cell line; settings: combined with methionine depletion; cited from earlier work
[9] = test system: PC-3 cells; test: HPLC analysis of nucleotide levels; assay type: cell-based, Human; settings: positive control for TS inhibition
Description: Cells were washed with phosphate buffered saline (PBS), trypsinized, washed again with PBS, counted, and pelleted. 5×10^5 cells from each sample were mixed with 10 μL 0.6 M trichloroacetic acid. The lysate was incubated at 4° C. for 30 minutes. After centrifugation, the acidic supernatant was transferred to a microcentrifuge tube. An equal volume of ice cold 80% 1,1,2-trichlorotrifluoroethane and 20% tri-n-octylamine was added to the lysate. The mixture was vortexed for 15 seconds and then centrifuged at 14000 g at 4° C. for 5 minutes. The aqueous supernatant was removed and centrifuged at 14000 g at 4° C. for 5 minutes. Samples were stored at −70° C. until use.used.
Clromatographic analyses were performed with a Waters 625 LC System (Waters Corporation, Milford, Mass., USA) consisting of a Waters 625 Fluid Handling Unit with a Rheodyne 9125-080 Manual Injector and 20 μL sample loop, 625E Powerline Controller, and 484 Tunable UV Detector. […]
A series of standards containing varying amounts of dUMP and dTTP ranging from […] was analyzed using the above methodology. The different quantities and their correlating absorption areas existed in a linear relationship. […] This linear equation was used to calculate the quantity of dUMP or dTTP represented by the absorption peaks in the chromatograms generated from our experimental samples.

[10] = test system: thymidylate synthase; test: Thymidylate synthase (TS) assay in PC-3 cells; assay type: cell-based, Human; settings: PC3 cells, within 8 hours
Description: (§1) Human prostate cancer PC3 cells (American Type Culture Collection, Rockville, Md.) were maintained in RPMI-1640 (Life Technologies, Inc., Gaithersburg, Md.) supplemented with 10% FBS (HyClone Laboratories, Logan, Utah) at 37° C. in 5% CO2. Methionine restriction experiments were performed in methionine-free RPMI-1640 (Life Technologies, Inc.) supplemented with 10% FBS and 100 μM Homocysteine (Sigma, St. Louis). Folate restriction experiments were performed in folate-free RPMI-1640 medium (Life Technologies, Inc.) supplemented with 10% FBS. Primary culture prostate epithelial cells (PrEC) were purchased from BioWhittaker, Inc. and Clonetics Products (Walkersville, Md.). PrEC was maintained in the prostate epithelial basal medium and methionine restriction was performed in prostate epithelial cell labeling medium without methionine supplemented with 100 μM homocysteine, which were obtained from the company.
TS assay was performed as previously described (24). Briefly, 25 μl of cell extract containing 50 μg protein, 5 μl 6.5 mM 5,10-CH2-THF, and 10 μl of Tris.HCl buffer were combined at room temperature. […] After centrifugation, 150 μl of the supernatant were counted by liquid scintillation. […]

[11] = test system: thymidylate synthase; test: Western blot of TS protein in PC3 cells; assay type: cell-based, Human
Description: as §1
Aliquots of samples with 50 μg of protein, determined by the Bradford assay (BioRad, Hercules, Calif.), were mixed with loading buffer (final concentrations of 62.5 mM Tris-HCl (pH 6.8), 2.3% SDS, 100 mM dithiothreitol, and 0.005% bromophenol blue), boiled, fractionated in a 10% SDS-PAGE, and transferred onto a 0.45-μm nitrocellulose membrane by electroblotting (BioRad). […]

O=NN(CCCl)C(=O)NCCCl [Carmustine, 1,3bis (2-chloroethyl)-1-nitrosourea]
Response rate (responders plus stable disease) ([1]; Berger et al., 1996): 29% | median time to progression [1]: 22 weeks

CC(=O)O[C@H]1C(=O)[C@@]2(C)[C@H]([C@H](OC(=O)c3ccccc3)[C@]3(O)C[C@H](OC(=O)[C@H](O)[C@@H](NC(=O)c4ccccc4)c4ccccc4)C(C)=C1C3(C)C)[C@]1(OC(C)=O)CO[C@@H]1C[C@@H]2O [taxol, Taxol]
Bcl-2 phosphorylation (upward shift on western blot) [2]: phosphorylated | Bcl-2 phosphorylation (upward shift on western blot) [3]: phosphorylated

COc1cccc2c1C(=O)c1c(O)c3c(c(O)c1C2=O)C[C@@](O)(C(=O)CO)C[C@@H]3O[C@H]1C[C@H](N)[C@H](O)[C@H](C)O1 [Doxorubicin, 5,12-Naphthacenedione, (8s-cis)-10-[(3-amino-2,3,6-trideoxy-a-L-lyxo-hexopyranosyl)oxy]-7,8,9,10-tetrahydro-6,8,11-trihydroxy-8-(hydroxyacetyl)-1-methoxy-hydrochloride]
effectiveness (reduced tumor weight, increased survivability) [4]: enhanced effectiveness

Bleomycin
time until improvement is noted [5]: ≤ 2 weeks

N[C@@H](Cc1ccc(N(CCCl)CCCl)cc1)C(=O)O [Melphalan, 4-[bis(2-chloroethyl)amino]-L-phenylalanine]
fraction of patients with favorable response [6]: one third to one half

Cc1c2oc3c(C)ccc(C(=O)N[C@@H]4C(=O)N[C@H](C(C)C)C(=O)N5CCC[C@H]5C(=O)N(C)CC(=O)N(C)[C@@H](C(C)C)C(=O)O[C@@H]4C)c3nc-2c(C(=O)N[C@@H]2C(=O)N[C@H](C(C)C)C(=O)N3CCC[C@H]3C(=O)N(C)CC(=O)N(C)[C@@H](C(C)C)C(=O)O[C@@H]2C)c(N)c1=O [Actinomycin D] (I: T[dV]P[Sar][NMeV] / II: T[dV]P[Sar][NMeV]; ester I:1-I:C, II:1-II:C; linker I:N-II:N via Actinocin(9to1))
fraction of the dose excreted intact into the bile ([7]; in vivo): Half

CN[C@@H]1C[C@H]2O[C@@](C)([C@@H]1OC)n1c3ccccc3c3c4c(c5c6ccccc6n2c5c31)C(=O)NC4 [staurosporine]
active (cleaved) form of caspases by western blot [2]: detectable

O=NN(CCCl)C(=O)NC1CCCCC1 [Lomustine, 1-(2-chloro-ethyl)-3-cyclohexyl-1 nitrosourea]
fraction of radioactivity excreted as degradation products ([7]; oral, 30 mg/m^2 to 100 mg/m^2, within 24 hours): about half

N.N.[Cl][Pt][Cl] [cisplatin, Cisplatin]
Treated tumor growth, % of growth in control mice tumors [8]: 32%

O=c1[nH]cc(F)c(=O)[nH]1 [5-FU, 5-fluorouracil]
dUMP/dTTP ratio [9]: dramatic increase | inhibition of TS activity [10]: 95% | TS protein accumulation in response to 5-FU ([11]; concurrent methionine restriction): largely abrogated | TS protein level ([11]; western blot): dramatically increased
